In PubChem BioAssay (NCI):
“And” between values parts separate entries of the source, which are not always exact repeats. Identical values can stand only once.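 These data come from cells grown in 96-well plates and exposed to compound for 48 hours at five concentrations. Abbreviation: GI50, concentration required for 50% inhibition of growth. TGI denotes the concentration required for complete inhibition of growth.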

Experiments:
Assay in all cases: inhibition of tumour cell growth, NCI panel, 48 h
[1] = system: NCI/ADR-RES ovarian
[2] = system: NCI-H226 lung
[3] = system: MDA-MB-231 breast
[4] = system: UACC-62 melanoma
[5] = system: SF-268 CNS
[6] = system: K-562 leukemia
[7] = system: UO-31 renal
[8] = system: ACHN renal
[9] = system: 786-0 renal
[10] = system: HOP-92 NSCLC

| Compound | GI50 [1] [µM] | TGI [1] [µM] | GI50 [2] [µM] | TGI [2] [µM] | GI50 [3] [µM] | TGI [3] | GI50 [4] [µM] | TGI [4] | GI50 [5] [µM] | TGI [5] | GI50 [6] [µM] | TGI [6] | GI50 [7] [µM] | TGI [7] | GI50 [8] [µM] | TGI [8] [µM] | GI50 [9] [µM] | TGI [9] [µM] | GI50 [10] [µM] | TGI [10] [µM] |
| --- | --- | --- | --- | --- | --- | --- | --- | --- | --- | --- | --- | --- | --- | --- | --- | --- | --- | --- | --- | --- |
| CC1(C)NCCC[C@]2(C)[C@H]3C=CC4=C5C[C@](C)(CO)CC[C@]5(C)CC[C@@]4(C)[C@]3(C)CC[C@@H]12 | 2.02 | 4.52 | 4 | 16.9 | 14.5 | 29.3 µM | 3.13 | 10.9 µM | 3.27 | 11.6 µM | 3.18 | 10.8 µM | 3.59 | 15.7 µM | 2.93 | 9.56 | 2.66 | 8.59 | 3.1 | 14.6 |
| O=C1C(Cl)=C(Oc2ccc([N+](=O)[O-])cc2)C(=O)c2c(O)ccc(O)c21 | – | > 100 | – | > 100 | – | 66 µM | – | > 100 µM | – | > 100 µM | – | 40.3 µM | – | > 100 µM | – | > 100 | – | > 100 | – | 56.6 |
| CC1(C)OC[C@@H]([C@@]2(CO[Si](C)(C)C(C)(C)C)CC=CC(=O)O2)O1 | 21.7 | 49.2 | – | – | 27.2 | 59.9 µM | 19 | 44.6 µM | 29 | 89.2 µM | 26.7 | > 100 µM | 19.2 | 42.2 µM | 22.4 | 51.7 | 20.7 | 40.4 | 14.1 | 43.4 |
| O=[N+]([O-])c1ccc(-c2nc(N(CCO)CCO)c3ccccc3n2)o1 | 0.956 | 7.57 | 0.216 | 1.05 | 1.08 | 4.25 µM | 0.196 | 0.477 µM | 0.211 | 1.52 µM | 0.337 | > 20.6 µM | 0.213 | 0.714 µM | 0.159 | 0.631 | 0.231 | 0.621 | 0.247 | 0.831 |
| O=C(/C=C/C=C/c1ccccc1)CCc1ccccc1 | – | > 100 | – | > 100 | – | > 100 µM | – | > 100 µM | – | > 100 µM | – | – | – | > 100 µM | – | – | – | > 100 | – | > 100 |
| CC([C@H]1CCC2C3CCC4C[C@@H](NC=O)CC[C@]4(C)C3CC[C@@]21C)N(C)C (stereo partly specified) | 6.02 | 21.4 | 5.47 | 21 | 2.38 | 5.89 µM | 2.04 | 4.08 µM | 1.7 | 3.93 µM | 0.862 | 3.18 µM | 1.49 | 3.12 µM | 5.17 | 18 | 1.99 | 4.15 | 1.13 | 7.61 |
| c1ccc(C(=NNc2nc3ccccc3o2)c2ccccn2)nc1 | 0.0386 | – | 0.0628 | – | 0.0693 | 21.6 µM and 17.7 µM | 0.0863 | 0.756 µM and 0.413 µM | 0.0551 | 22.9 µM and 2.38 µM | – | > 100 µM and 22.9 µM | 0.0427 | 1.18 µM and 3.03 µM | 0.0395 | – | 0.125 | – | 0.0751 | – |
| Nc1ccc(C(=O)c2ccc(N)c(Br)c2)cc1Br | 0.348 | > 46.2 | 4.27 | > 61.5 | 0.772 | > 47.1 µM | 0.645 | > 62.1 µM | 0.747 | > 53.1 µM | 0.271 | 22.2 µM | 0.734 | 34 µM | 1.47 | > 69.9 | 0.775 | 17.8 | 0.299 | 5.9 |
| OCC(O)C(O)C(O)C1SC(c2ccccc2)=NN1c1ccccc1 (stereo unspecified) | – | > 100 | – | > 100 | – | > 91.6 µM | – | 74.2 µM | – | > 97.3 µM | – | > 100 µM | – | > 100 µM | – | > 83 | – | > 100 | – | 63.4 |
| C=C1C[C@@H]2C/C=C/C(=O)C/C(C)=C\C=C\C(=O)O[C@H](C=O)C/C(C)=C/[C@H](C1)O2 | 2.58 | > 100 | 8.49 | 49 | 3.69 | 13.1 µM | 0.818 | 14 µM | 1.39 | 19.6 µM | 0.16 | > 40.2 µM | 3.33 | 56.4 µM | 6.64 | 21.8 | 0.783 | 18.3 | 0.367 | 2.34 |
| S=c1nc(Oc2ccc(Cl)c(Cl)c2)[nH]c(=S)[nH]1 | – | > 100 | – | > 77.6 | – | > 100 µM | – | > 60.3 µM | – | > 81.8 µM | – | > 31.6 µM | – | 71.2 µM | – | > 82.2 | – | > 100 | – | 60.9 |
| Cc1ncc([N+](=O)[O-])n1CCNS(=O)(=O)CCCn1ccnc1[N+](=O)[O-] | – | > 100 | – | > 100 | – | > 100 µM | – | > 100 µM | – | > 100 µM | – | > 100 µM | – | > 100 µM | – | > 100 | – | > 100 | – | > 100 |
| CCCCCCCCCNCCCCCCCCC | 1.71 | 3.37 | 1.83 | 3.61 | 1.56 | 3.21 µM | 1.74 | 3.35 µM | 2.29 | 5.28 µM | – | – | 1.62 | 3.8 µM | 1.76 | 3.14 | 1.98 | 3.43 | 1.47 | 3.03 |
| O=C1CCCCCCCC/C=C/CCC(c2ccco2)O1 (stereo unspecified) | > 100 | > 100 | 34.8 | > 100 | 40 | 97.6 µM | 26.2 | > 100 µM | 44.3 | > 100 µM | 35.2 | > 100 µM | – | – | > 100 | > 100 | 45.9 | > 100 | 50.5 | > 100 |
